The values that follow come from ChEMBL document CHEMBL1141047, “4-Phenyl-1,2,3,6-tetrahydropyridine, an excellent fragment to improve the potency of PARP-1 inhibitors” (Bioorg Med Chem Lett, 2005).

Some results are limits rather than exact numbers.

Poly [ADP-ribose] polymerase 1, sequence (P09874 whole entry): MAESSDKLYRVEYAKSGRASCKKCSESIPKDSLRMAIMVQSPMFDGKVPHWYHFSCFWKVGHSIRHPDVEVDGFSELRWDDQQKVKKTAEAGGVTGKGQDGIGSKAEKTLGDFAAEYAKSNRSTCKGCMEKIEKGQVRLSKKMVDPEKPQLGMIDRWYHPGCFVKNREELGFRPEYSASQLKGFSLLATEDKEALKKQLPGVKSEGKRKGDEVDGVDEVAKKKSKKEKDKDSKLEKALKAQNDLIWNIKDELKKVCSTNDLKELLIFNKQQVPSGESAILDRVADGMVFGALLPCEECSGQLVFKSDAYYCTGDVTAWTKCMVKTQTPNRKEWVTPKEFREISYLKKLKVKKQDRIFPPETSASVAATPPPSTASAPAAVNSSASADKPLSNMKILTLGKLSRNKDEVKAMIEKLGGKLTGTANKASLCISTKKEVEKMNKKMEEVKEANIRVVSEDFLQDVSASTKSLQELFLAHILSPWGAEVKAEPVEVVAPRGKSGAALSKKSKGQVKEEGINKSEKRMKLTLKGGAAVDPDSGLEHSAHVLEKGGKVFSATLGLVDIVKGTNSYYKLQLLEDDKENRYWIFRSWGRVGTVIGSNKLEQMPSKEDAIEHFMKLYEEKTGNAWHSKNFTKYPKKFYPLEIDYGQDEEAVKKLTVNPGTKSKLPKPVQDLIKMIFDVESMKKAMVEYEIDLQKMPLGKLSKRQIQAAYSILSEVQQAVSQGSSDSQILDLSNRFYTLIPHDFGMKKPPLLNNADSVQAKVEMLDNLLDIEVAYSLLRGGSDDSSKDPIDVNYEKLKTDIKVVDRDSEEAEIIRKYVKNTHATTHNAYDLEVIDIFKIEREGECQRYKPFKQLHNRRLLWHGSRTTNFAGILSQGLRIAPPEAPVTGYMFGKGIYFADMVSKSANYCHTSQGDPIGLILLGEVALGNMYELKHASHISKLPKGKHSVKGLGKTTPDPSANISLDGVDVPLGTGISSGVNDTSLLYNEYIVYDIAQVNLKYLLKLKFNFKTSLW

This test concerns the target Poly [ADP-ribose] polymerase 1 (Homo sapiens, UniProt P09874).
Description: In vitro inhibitory concentration against Poly(ADP-ribose) polymerase 1
For `O=C1N=C(CCCN2CC=C(c3ccccc3)CC2)NC2CCCCCC12` (centres undefined), it took 495 nM to reach half-maximal inhibition (IC50). This counts as sub-micromolar.
For `CC1CCC2NC(CCCN3CC=C(c4ccccc4)CC3)=NC(=O)C2C1` (centres undefined), the 50% inhibitory concentration (IC50) (usually the concentration at which inhibition is half-maximal) is 274 nM.
In the case of `O=c1[nH]nc(CCCCN2CCOCC2)c2ccccc12` it was 950 nM; in that of `O=C1NC(CCCN2CC=C(c3ccccc3)CC2)=NC2CCSCC12` (centres undefined), 8.9 nM; in that of `CC1=NC(=O)C2CSCCC2N1` (centres undefined), 467 nM.
As to `O=c1[nH]c2ccc(CCCCN3CC=C(c4ccccc4)CC3)cc2c2ccccc12`, half-maximal inhibition (IC50) was put at 119 nM. This IC50 lies about 3.9-fold lower than the previous one.
Molecule `O=C1N=C(CCCN2CC=C(c3ccccc3)CC2)NC2CCOCC12` (centres undefined) returned a half-inhibitory concentration (IC50) of 200 nM.
In the case of `O=C1N=C(CCCN2CC=C(c3ccccc3)CC2)NC2CCCCC12` (centres undefined) it was 20 nM; in that of `O=C1N=C(CCCN2CC=C(c3ccccc3)CC2)NC2CCNCC12` (centres undefined), 8600 nM; in that of `Oc1nnc(CCCCCN2CCOCC2)c2ccccc12`, 119 nM.
The value for `O=c1[nH]c2cc(CN3CCOCC3)ccc2c2ccccc12` was 23 nM.
Turning to `O=C1NC(CCCN2CC=C(c3ccccc3)CC2)=NC2CCCC12` (centres undefined), the midpoint of inhibition, the IC50, lay at 249 nM.
In the case of `CN1CCC2NC(CCCN3CC=C(c4ccccc4)CC3)=NC(=O)C2C1` (centres undefined) it was 6100 nM; in that of `CC1(C)CCC2NC(CCCN3CC=C(c4ccccc4)CC3)=NC(=O)C2C1` (centres undefined), more than 10000 nM.
